Measurements: patent US12624018B1, “Inhibitors of RIPK2 and medical uses thereof” (Odyssey Therapeutics, Inc., priority 2022, dated 2026)
Read-outs that look alike come from different tables or passages of the source.

Assays:
RIPK2 enzyme = target: T1, RIPK2 enzyme (Homo sapiens, UniProt O43353); assay: RIPK2 inhibition (ADP-Glo Kinase Assay); type: biochemical; details: RIPK2 5 nM, ATP 150 μM, MBP substrate, read-out: RIPK2 IC50
T1 construct: purchased Carna 09-128
How it was run: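 Human RIPK2 (5 nM) preincubated with compound 30 min at room temperature in 50 mM HEPES pH 7.5, 10 mM MgCl2, 2 mM DTT, 1 mM EGTA, 0.01% Brij-35, 0.05% BSA; native swine MBP as substrate. ADP formed quantified by ADP-Glo luminescence; percent inhibition relative to DMSO and no-enzyme controls.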

human NOD2 signaling = assay: Inhibition of human NOD2 signaling in HEK-Blue-hNOD2 cells (L18-MDP stimulated, SEAP reporter); type: cell-based; details: NOD2 ligand stimulation, SEAP reporter, read-out: hNOD2 IC50
Method: Materials: Human NOD32-expressing 1TEK293 cells, HEK-Blue™-hNOD2 cells, were developed by Invivogen (catalogue number: hkb-hnod2) using co-transfection of the human NOD2 gene and an optimized secreted embryonic alkaline phosphatase (SEAP) reporter gene into HTEK293 cells. The cell maintenance medium consisted of DMEM (Giboc, 21063-029), heat inactivated FBS, penicillin (100 U/mL), streptomycin (100 μg/mL), Normocin (100 μg/mL), Blasticidin (30 μg/mL), and Zeocin (100 μg/mL). HEK-Blue™-hNOD2 cells were transferred to assay medium consisting of DMEM (Giboc, 21063-029), heat inactivated FBS, penicillin (100 U/mL) and streptomycin (100 μg/mL) prior to stimulation. Stimulation with a NOD2 ligand, L18-MDP (Invivogen, catalogue number: tlrl-lmdp) activated NF-κB and AP-1 which induced the production of SEAP. Levels of SEAP were determined with HEK-Blue™ Detection (referred to as QUANTI-Blue solution), a cell culture medium that allows for real-time detection of SEAP. QUANTI-Blue solution was prepared by adding 1 mL of QB reagent and 1 mL of QB buffer to 98 mL of sterile H2O. Test compounds were prepared into a 10 mM DMSO solution and were serially diluted into 10 points using a 3-fold dilution in a 384 well plate using a TECAN EVO200.
Method: In a 384 well plate, 40 nL of test compound was dispensed using Echo550. HEK-Blue™-hNOD2 cells (Invivogen) were prepared into a cell suspension and 40 μL of the cell suspension (12500 cells per well) was dispensed into the 384 well plate. To activate NOD2 signaling, 40 nL of L18-MDP (final concentration of 0.5 ng/mL) was added and the plate was incubated at 37° C. in a CO2 incubator for 24 hours. After the 24-hour incubation, 5 μL of the induced HEK-Blue hNOD2 cell supernatant was transferred to a new 384-well plate, centrifuged, and 45 μL of QUANTI-Blue solution was added per well and incubated for 3 hours at 37° C. SEAP levels were measured using an Ensight at 620 nm. Percent inhibition of NOD2 signaling was determined using the following equation: (high control−test compound signal)/(High control−low control)×100. The reaction high control was determined using wells with DMSO, cells, L18-MDP, and QUANTI-Blue solution. The reaction low control was determined using wells with DMSO, cells, and QUANTI-Blue solution. 4-parametric curve fit was used to determine the test compound concentration that results in 50% reduction of L18-MDP-driven human NOD2 signaling.
Using the assay described above, inhibition of hNOD2 signaling was also evaluated for GSK 2983559 (Haile at al., J. Med. Chem. 2019, 62, 14, 6482-6494), a known RIPK2 kinase inhibitor: […]

[1] = Homo sapiens, HEK-Blue hNOD2, HEK-Blue-hNOD2 cells

T1 sequence (O43353 1-299 limits assumed): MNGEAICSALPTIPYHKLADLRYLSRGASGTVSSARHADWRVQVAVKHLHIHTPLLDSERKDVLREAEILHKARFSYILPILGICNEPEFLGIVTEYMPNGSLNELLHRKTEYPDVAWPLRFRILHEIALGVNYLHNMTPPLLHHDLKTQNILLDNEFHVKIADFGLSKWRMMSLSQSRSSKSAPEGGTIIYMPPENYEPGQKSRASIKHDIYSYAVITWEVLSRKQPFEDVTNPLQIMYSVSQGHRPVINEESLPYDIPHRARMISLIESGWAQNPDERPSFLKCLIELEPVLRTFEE

| SMILES | IC50 (RIPK2 enzyme) | IC50 (human NOD2 signaling; HEK-Blue-hNOD2 cells) | IC50 (human NOD2 signaling; [1]) |
| --- | --- | --- | --- |
| Cc1c(Oc2ccnc3ccc(S(=N)(=O)C4CC4)cc23)ccc(CC(=O)Nc2cnn(C34CC(C3)C4)c2)c1F (single isomer, unassigned) [Compound 527] | < 2.5 nM | 0.7 nM | – |
| Cc1c(Oc2ccnc3ccc(S(=N)(=O)C4CC4)cc23)ccc(CC(=O)Nc2cnn(C34CC(C3)C4)c2)c1F (single isomer, unassigned) [Compound 528, N-(1-(bicyclo[1.1.1]pentan-1-yl)-1H-pyrazol-4-yl)-2-(4-((6-(cyclopropanesul-fonimidoyl)quinolin-4-yl)oxy)-2-fluoro-3-methylphenyl) acetamide] | < 2.5 nM | – | 0.8 nM |
| N=S(=O)(c1ccc2nccc(Oc3cc(F)c(CC(=O)Nc4cnn(C56CC(C5)C6)c4)cc3Cl)c2c1)C1CC1 (single isomer, unassigned) [Compound 531, N-(1-(bicyclo[1.1.1]pentan-1-yl)-1H-pyrazol-4-yl)-2-(5-chloro-4-((6-(cyclopropanesul-fonimidoyl)quinolin-4-yl)oxy)-2-fluorophenyl) acetamide] | < 2.5 nM | 41.6 nM | – |
| N=S(=O)(c1ccc2nccc(Oc3cc(F)c(CC(=O)Nc4cnn(C56CC(C5)C6)c4)cc3Cl)c2c1)C1CC1 (single isomer, unassigned) [Compound 532, N-(1-(bicyclo[1.1.1]pentan-1-yl)-1H-pyrazol-4-yl)-2-(5-chloro-4-((6-(cyclopropanesul-fonimidoyl)quinolin-4-yl)oxy)-2-fluorophenyl) acetamide] | < 2.5 nM | 16.9 nM | – |
| CC(C)(C)n1cc(NC(=O)Cc2cc(Cl)c(Oc3ccnc4ccc(S(=N)(=O)C5CC5)cc34)cc2F)cn1 (single isomer, unassigned) [Compound 533, N-(1-(tert-butyl)-1H-pyrazol-4-yl)-2-(5-chloro-4-((6-(cyclopropanesul-fonimidoyl)quinolin-4-yl)oxy)-2-fluorophenyl) acetamide] | < 2.5 nM | – | 10.4 nM |
| CC(C)(C)n1cc(NC(=O)Cc2cc(Cl)c(Oc3ccnc4ccc(S(=N)(=O)C5CC5)cc34)cc2F)cn1 (single isomer, unassigned) [Compound 534, N-(1-(tert-butyl)-1H-pyrazol-4-yl)-2-(5-chloro-4-((6-(cyclopropanesulfonimidoyl)quinolin-4-yl)oxy)-2-fluorophenyl) acetamide] | < 2.5 nM | 6 nM | – |
| CCS(=N)(=O)c1ccc2nccc(Oc3ccc(CC(=O)Nc4cnn(C(C)(C)C)c4)c(F)c3C)c2c1 (single isomer, unassigned) [Compound 535, N-(1-(tert-butyl)-1H-pyrazol-4-yl)-2-(4-((6-(ethylsulfonimidoyl)quinolin-4-yl)oxy)-2-fluoro-3-methylphenyl) acetamide] | < 2.5 nM | – | 0.8 nM |
| CCS(=N)(=O)c1ccc2nccc(Oc3ccc(CC(=O)Nc4cnn(C(C)(C)C)c4)c(F)c3C)c2c1 (single isomer, unassigned) [Compound 536, N-(1-(tert-butyl)-1H-pyrazol-4-yl)-2-(4-((6-(ethylsulfonimi-doyl)quinolin-4-yl)oxy)-2-fluoro-3-methylphenyl) acetamide] | < 2.5 nM | 0.7 nM | – |
| Cc1c(Oc2ccnc3ccc(S(=N)(=O)C(C)C)cc23)ccc(CC(=O)Nc2cnn(C(C)(C)C)c2)c1F (single isomer, unassigned) [Compound 537, N-(1-(tert-butyl)-1H-pyrazol-4-yl)-2-(2-fluoro-3-methyl-4-((6-(propan-2-ylsulfonimidoyl)quinolin-4-yl)oxy)phenyl) acetamide] | < 2.5 nM | – | 0.4 nM |
| Cc1c(Oc2ccnc3ccc(S(=N)(=O)C(C)C)cc23)ccc(CC(=O)Nc2cnn(C(C)(C)C)c2)c1F (single isomer, unassigned) [Compound 538, N-(1-(tert-butyl)-1H-pyrazol-4-yl)-2-(2-fluoro-3-methyl-4-((6-(propan-2-ylsulfonimidoyl)quinolin-4-yl)oxy)phenyl) acetamide] | < 2.5 nM | 0.2 nM | – |
| Cc1cc(CC(=O)Nc2cnn(C(C)(C)C)c2)c(F)cc1Oc1ccnc2ccc(C(=O)N3[C@H](C)COC[C@@H]3C)cc12 [Compound 451, N-(1-(tert-butyl)-1H-pyrazol-4-yl)-2-(4-((6-((3S,5R)-3,5-dimethylmorpholine-4-carbonyl)quinolin-4-yl)oxy)-2-fluoro-5-methylphenyl)acetamide] | < 2.5 nM | – | – |
| Cc1cc(CC(=O)Nc2cnn(C(C)(C)C)c2)c(F)cc1Oc1ccnc2ccc(C(=O)N3C[C@H]4C[C@@H]3CO4)cc12 [Compound 452, 2-(4-((6-((1R,4R)-2-oxa-5-azabicyclo[2.2.1]heptane-5-carbonyl)quinolin-4-yl)oxy)-2-fluoro-5-methylphenyl)-N-(1-(tert-butyl)-1H-pyrazol-4-yl)acetamide] | < 2.5 nM | – | – |
| Cc1cc(CC(=O)Nc2cnn(C(C)(C)C)c2)c(F)cc1Oc1ccnc2ccc(C(=O)N3C[C@H]4C[C@@H]3CN4)cc12 [Compound 453, 2-(4-((6-((1R,4R)-2,5-diazabicyclo[2.2.1]heptane-2-carbonyl)quinolin-4-yl)oxy)-2-fluoro-5-methylphenyl)-N-(1-(tert-butyl)-1H-pyrazol-4-yl)acetamide] | < 2.5 nM | – | – |
| Cc1cc(CC(=O)Nc2cnn(C(C)(C)C)c2)c(F)cc1Oc1ccnc2ccc(C(=O)N3C[C@@H]4C[C@H]3CO4)cc12 [Compound 454, 2-(4-((6-((1S,4S)-2-oxa-5-azabicyclo[2.2.1]heptane-5-carbonyl)quinolin-4-yl)oxy)-2-fluoro-5-methylphenyl)-N-(1-(tert-butyl)-1H-pyrazol-4-yl)acetamide] | < 2.5 nM | – | – |
| Cc1cc(CC(=O)Nc2cnn(C(C)(C)C)c2)c(F)cc1Oc1ccnc2ccc(C(=O)NC(C)C)cc12 [Compound 455, 4-(4-(2-((1-(tert-butyl)-1H-pyrazol-4-yl)amino)-2-oxoethyl)-5-fluoro-2-methylphenoxy)-N-isopropylquinoline-6-carboxamide] | < 2.5 nM | – | – |
| Cc1cc(CC(=O)Nc2cnn(C(C)(C)C)c2)c(F)cc1Oc1ccnc2ccc(C(=O)NC(C)(C)C)cc12 [Compound 456, N-(tert-butyl)-4-(4-(2-((1-(tert-butyl)-1H-pyrazol-4-yl)amino)-2-oxoethyl)-5-fluoro-2-methylphenoxy)quinoline-6-carboxamide] | < 2.5 nM | – | – |
| Cc1cc(CC(=O)Nc2cnn(C(C)(C)C)c2)c(F)cc1Oc1ccnc2ccc(C(=O)NC3CC3)cc12 [Compound 457, 4-(4-(2-((1-(tert-butyl)-1H-pyrazol-4-yl)amino)-2-oxoethyl)-5-fluoro-2-methylphenoxy)-N-cyclopropylquinoline-6-carboxamide] | < 2.5 nM | – | – |
| Cc1cc(CC(=O)Nc2cnn(C(C)(C)C)c2)c(F)cc1Oc1ccnc2ccc(C(=O)NC3(C)CC3)cc12 [Compound 458, 4-(4-(2-((1-(tert-butyl)-1H-pyrazol-4-yl)amino)-2-oxoethyl)-5-fluoro-2-methylphenoxy)-N-(1-methylcyclopropyl)quinoline-6-carboxamide] | < 2.5 nM | – | – |
| CSc1ccc2nccc(Oc3cc(F)c(CC(=O)Nc4cnn(C(C)(C)C)c4)cc3C)c2c1 [Compound 459, N-(1-(tert-butyl)-1H-pyrazol-4-yl)-2-(2-fluoro-5-methyl-4-((6-(methylthio)quinolin-4-yl)oxy)phenyl)acetamide] | < 2.5 nM | – | – |
| Cc1cc(CC(=O)Nc2cnn(C(C)(C)C)c2)c(F)cc1Oc1ccnc2ccc(-c3nnccc3C)cc12 [Compound 460, N-(1-(tert-butyl)-1H-pyrazol-4-yl)-2-(2-fluoro-5-methyl-4-((6-(4-methylpyridazin-3-yl)quinolin-4-yl)oxy)phenyl)acetamide] | < 2.5 nM | – | – |
